According to ChEMBL document CHEMBL1149882, “Sesterterpenoids from the sponge Sarcotragus sp” (J Nat Prod, 2008):
≈ marks a conversion by molar mass, not a printed value.

What was measured:
Staphylococcus aureus [1] = test: Antimicrobial activity against methicillin-resistant Staphylococcus aureus ATCC 43300; format: functional
Staphylococcus aureus [2] = test: Antimicrobial activity against methicillin-resistant Staphylococcus aureus ATCC 700787; format: functional
Staphylococcus aureus [3] = test: Antimicrobial activity against methicillin-resistant Staphylococcus aureus ATCC 700788; format: functional
Isocitrate lyase = Isocitrate lyase (Candida albicans, UniProt Q9P8Q7); test: Inhibition of Candida albicans isocitrate lyase
Sequence of Isocitrate lyase (Q9P8Q7 whole entry): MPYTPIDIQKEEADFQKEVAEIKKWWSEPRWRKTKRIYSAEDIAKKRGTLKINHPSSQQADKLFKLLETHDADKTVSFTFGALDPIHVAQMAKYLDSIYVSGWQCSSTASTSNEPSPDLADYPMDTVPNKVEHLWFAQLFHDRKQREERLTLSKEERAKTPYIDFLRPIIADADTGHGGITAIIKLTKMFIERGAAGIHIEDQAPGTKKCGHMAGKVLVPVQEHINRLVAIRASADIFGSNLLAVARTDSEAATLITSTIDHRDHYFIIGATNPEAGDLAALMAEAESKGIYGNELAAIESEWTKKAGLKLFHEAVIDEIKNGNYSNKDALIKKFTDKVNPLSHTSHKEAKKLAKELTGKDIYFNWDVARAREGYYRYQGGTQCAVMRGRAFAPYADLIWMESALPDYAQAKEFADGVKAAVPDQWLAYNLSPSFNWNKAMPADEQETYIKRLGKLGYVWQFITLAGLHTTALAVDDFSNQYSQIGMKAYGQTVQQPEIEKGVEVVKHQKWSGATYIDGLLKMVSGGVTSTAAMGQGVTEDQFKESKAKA

Micrococcus luteus = test: Antimicrobial activity against Micrococcus luteus IFC12708; format: functional
Staphylococcus aureus [4] = test: Antimicrobial activity against Staphylococcus aureus ATCC 65389; format: functional
Bacillus subtilis = test: Antimicrobial activity against Bacillus subtilis ATCC 6633; format: functional
Escherichia coli = test: Antimicrobial activity against Escherichia coli ATCC 11775; format: functional
Salmonella typhimurium = test: Antimicrobial activity against Salmonella Typhimurium ATCC 14028; format: functional, Salmonella enterica subsp. enterica serovar Typhimurium; conditions: Salmonella enterica
Proteus vulgaris = test: Antimicrobial activity against Proteus vulgaris ATCC 3851; format: functional
K562 = test: Cytotoxicity against human K562 cells by MTT assay; format: functional; conditions: read-out: LC50 (the source's name)

SMILES	MIC (Staphylococcus aureus [1])	MIC (Staphylococcus aureus [2])	MIC (Staphylococcus aureus [3])	IC50 (Isocitrate lyase)	MIC (Micrococcus luteus)	MIC (Staphylococcus aureus [4])	MIC (Bacillus subtilis)	MIC (Escherichia coli)	MIC (Salmonella typhimurium)	MIC (Proteus vulgaris)	CC50 (K562)
Cc1onc(-c2ccccc2)c1C(=O)N[C@@H]1C(=O)N2[C@@H]1SC(C)(C)[C@@H]2C(=O)O [OXACILLIN]	25 µg/mL (≈ 62.3 µM)	50 µg/mL (≈ 125 µM)	25 µg/mL (≈ 62.3 µM)								
C=C(CC(=O)O)C(=O)O [ITACONATE]				37.7 µM							
COC1C=C(CC/C=C(\C)CC/C=C(\C)CCC[C@@H](C)/C=C2\OC(=O)C(C)=C2O)C(OC)O1 (stereo not given in full)	50 µg/mL (≈ 109 µM)	50 µg/mL (≈ 109 µM)	100 µg/mL (≈ 217 µM)	91.4 µM	50 µg/mL (≈ 109 µM)	100 µg/mL (≈ 217 µM)	50 µg/mL (≈ 109 µM)	> 100 µg/mL	> 100 µg/mL	100 µg/mL (≈ 217 µM)	80 µg/mL (≈ 174 µM)
COC(=O)C(C)(O)[C@@](O)(C[C@H](C)CC/C=C(/C)CC/C=C(/C)CCCc1ccoc1)C(=O)OC (stereo not given in full)	> 100 µg/mL	> 100 µg/mL	> 100 µg/mL	253 µM	50 µg/mL (≈ 104 µM)	> 100 µg/mL	> 100 µg/mL	> 100 µg/mL	> 100 µg/mL	> 100 µg/mL	46 µg/mL (≈ 96.1 µM)
C/C(=C\CCc1ccoc1)CC/C=C(\C)CCC[C@@H](C)CC(=O)O	25 µg/mL (≈ 75.2 µM)	100 µg/mL (≈ 301 µM)	> 100 µg/mL	> 602 µM	12.5 µg/mL (≈ 37.6 µM)	100 µg/mL (≈ 301 µM)	> 100 µg/mL	> 100 µg/mL	50 µg/mL (≈ 150 µM)	50 µg/mL (≈ 150 µM)	> 100 µg/mL
CC1=C(O)/C(=C/[C@H](C)CC/C=C(/C)CC/C=C(/C)CCCC2=CC(O)OC2=O)OC1=O (stereo not given in full)	> 100 µg/mL	> 100 µg/mL	> 100 µg/mL		100 µg/mL (≈ 232 µM)	> 100 µg/mL	> 100 µg/mL	> 100 µg/mL	> 100 µg/mL	> 100 µg/mL	> 100 µg/mL
CC1=C(O)/C(=C/[C@H](C)CCC/C(C)=C/CCC(C)(O)CCCc2ccoc2)OC1=O (stereo not given in full)	100 µg/mL (≈ 240 µM)	> 100 µg/mL	> 100 µg/mL	55.7 µM	100 µg/mL (≈ 240 µM)	> 100 µg/mL	> 100 µg/mL	> 100 µg/mL	> 100 µg/mL	> 100 µg/mL	> 100 µg/mL
C/C(=C/CC[C@@H](C)CC(=O)O)CC/C=C(/C)CCCC1=CC(=O)OC1=O	> 100 µg/mL	> 100 µg/mL	> 100 µg/mL	54.9 µM	100 µg/mL (≈ 276 µM)	> 100 µg/mL	> 100 µg/mL	> 100 µg/mL	> 100 µg/mL	> 100 µg/mL	> 100 µg/mL
COC1C=C(CCC/C(C)=C\CC/C(C)=C\CC[C@@H](C)/C=C2\OC(=O)C(C)=C2O)C(OC)O1 (stereo not given in full)	100 µg/mL (≈ 217 µM)	100 µg/mL (≈ 217 µM)	100 µg/mL (≈ 217 µM)	95.1 µM	50 µg/mL (≈ 109 µM)	100 µg/mL (≈ 217 µM)	50 µg/mL (≈ 109 µM)	> 100 µg/mL	> 100 µg/mL	> 100 µg/mL	83 µg/mL (≈ 180 µM)
COC(=O)C(C)(O)[C@](O)(C[C@H](C)CCC/C(C)=C/CC/C(C)=C/CCc1ccoc1)C(=O)OC (stereo not given in full)	> 100 µg/mL	> 100 µg/mL	> 100 µg/mL	> 418 µM	100 µg/mL (≈ 209 µM)	> 100 µg/mL	> 100 µg/mL	> 100 µg/mL	> 100 µg/mL	> 100 µg/mL	20 µg/mL (≈ 41.8 µM)
CC1=C(O)/C(=C/[C@H](C)CCC/C(C)=C/CC/C(C)=C/CCC2=CC(O)OC2=O)OC1=O (stereo not given in full)	> 100 µg/mL	> 100 µg/mL	> 100 µg/mL	29 µM	50 µg/mL (≈ 116 µM)	> 100 µg/mL	> 100 µg/mL	> 100 µg/mL	> 100 µg/mL	> 100 µg/mL	> 100 µg/mL
COC(=O)C(C)(O)[C@](O)(C[C@H](C)CC/C=C(/C)CC/C=C(/C)CCCC1=CCN(CC(=O)O)C1=O)C(=O)OC (stereo not given in full)	> 100 µg/mL	> 100 µg/mL	> 100 µg/mL	358 µM	> 100 µg/mL	> 100 µg/mL	> 100 µg/mL	> 100 µg/mL	> 100 µg/mL	> 100 µg/mL	> 100 µg/mL
COC(=O)C(C)(O)[C@](O)(C[C@H](C)CC/C=C(/C)CC/C=C(/C)CCCc1ccoc1)C(=O)OC (stereo not given in full)	> 100 µg/mL	> 100 µg/mL	> 100 µg/mL	188 µM	> 100 µg/mL	> 100 µg/mL	> 100 µg/mL	> 100 µg/mL	> 100 µg/mL	> 100 µg/mL	34 µg/mL (≈ 71 µM)
COC(=O)C(C)(O)[C@](O)(C[C@H](C)CCC/C(C)=C/CC/C(C)=C/CCC1=CCN(CC(=O)O)C1=O)C(=O)OC (stereo not given in full)	> 100 µg/mL	> 100 µg/mL	> 100 µg/mL	> 363 µM	> 100 µg/mL	> 100 µg/mL	> 100 µg/mL	> 100 µg/mL	> 100 µg/mL	> 100 µg/mL	> 100 µg/mL
CC1=C(O)/C(=C/[C@H](C)CCC/C(C)=C/CC/C(C)=C/CCc2ccoc2)OC1=O	50 µg/mL (≈ 125 µM)	50 µg/mL (≈ 125 µM)	50 µg/mL (≈ 125 µM)	81.5 µM	12.5 µg/mL (≈ 31.4 µM)	12.5 µg/mL (≈ 31.4 µM)	6.25 µg/mL (≈ 15.7 µM)	> 100 µg/mL	25 µg/mL (≈ 62.7 µM)	12.5 µg/mL (≈ 31.4 µM)	39 µg/mL (≈ 97.9 µM)
CC1=C(O)/C(=C/[C@H](C)CC/C=C(/C)CC/C=C(/C)CCCC2=CC(=O)OC2O)OC1=O (stereo not given in full)	100 µg/mL (≈ 232 µM)	100 µg/mL (≈ 232 µM)	> 100 µg/mL	91.5 µM	50 µg/mL (≈ 116 µM)	> 100 µg/mL	> 100 µg/mL	> 100 µg/mL	> 100 µg/mL	> 100 µg/mL	> 100 µg/mL
CC1(C)S[C@@H]2[C@H](NC(=O)[C@H](N)c3ccccc3)C(=O)N2[C@H]1C(=O)O [AMPICILLIN]					12.5 µg/mL (≈ 35.8 µM)	1.56 µg/mL (≈ 4.47 µM)	3.12 µg/mL (≈ 8.94 µM)	1.56 µg/mL (≈ 4.47 µM)	1.56 µg/mL (≈ 4.47 µM)	3.12 µg/mL (≈ 8.94 µM)	
C/C(=C/CC[C@@H](C)CC(=O)O)CC/C=C(/C)CCCc1ccoc1	12.5 µg/mL (≈ 37.6 µM)	25 µg/mL (≈ 75.2 µM)	25 µg/mL (≈ 75.2 µM)	241 µM	6.25 µg/mL (≈ 18.8 µM)	25 µg/mL (≈ 75.2 µM)	25 µg/mL (≈ 75.2 µM)	> 100 µg/mL	12.5 µg/mL (≈ 37.6 µM)	25 µg/mL (≈ 75.2 µM)	> 100 µg/mL
CC1=C(O)/C(=C/[C@H](C)CC/C=C(/C)CC/C=C(/C)CCCc2ccoc2)OC1=O	6.25 µg/mL (≈ 15.7 µM)	6.25 µg/mL (≈ 15.7 µM)	12.5 µg/mL (≈ 31.4 µM)	81.5 µM	3.12 µg/mL (≈ 7.84 µM)	3.12 µg/mL (≈ 7.84 µM)	3.12 µg/mL (≈ 7.84 µM)	> 100 µg/mL	6.25 µg/mL (≈ 15.7 µM)	6.25 µg/mL (≈ 15.7 µM)	62 µg/mL (≈ 156 µM)
